# In US9790563B2, “Method for treating liver cancer” (priority 2014, dated 2017):
# Assays:
# [1] = test system: ErbB3-specific siRNA-treated Hep3Bx cells; test: crystal violet staining (FIG. 12b); format: cell-based; conditions: ErbB3-specific siRNA-treated Hep3Bx cells compared to control siRNA-treated, 120 hours
# Protocol: (§1) 5 μL of 20 μM siRNA is mixed with 1 μL of the transfection reagent and 100 μL of the medium without FBS. 30 minutes later, the siRNA-containing mixture is added into the medium-discarded Hep3Bx cells with a final volume of 1 mL. After incubating for 5 hours, the FBS containing medium as added to a final volume of 2 mL. The following experiment is performed 4-day posttransfection.
# (§2) ErbB3-specific siRNA with a sequence as set forth in SEQ ID NO: 13 is used to silence expression of ErbB3 in the Hep3Bx cells. The control siRNA with a sequence as set forth in SEQ ID NO: 10 is used as a control.
# [2] = test system: Hep3Bx cells; test: MTT cytotoxicity assay; format: cell-based; conditions: 72 hours, 0-10 μM
# Protocol: (§3) In the following trials, liver cancer cells including Hep3B, Hep3Bx, HepG2 and HepG2x cells are used. The Hep3Bx and HepG2x cells, derived from the Hep3B and HepG2 cells, respectively, are cell lines constitutively expressing HBx. All of the liver cancer cells are incubated in a 37° C. incubator. DME/F12 with 10% FBS is used as media for incubating the cell lines. Moreover, lapatinib is dissolved in DMSO with different concentration.
# (§4) Cytotoxicity of lapatinib to the Hep3B and Hep3Bx cells is monitored using the MTT 3-(4,5-dimethylthiazol-2-yl)-2,5-diphenyltetrazolium bromide assay. First, the Hep3B and Hep3Bx cells are inoculated in a 96-well pate with 5,000-10,000 cells per well. After incubating at 37° C. for 24 hours, 0, 0.1, 0.5, 1, 5 and 10 μM of lapatinib is added into the medium for further incubation at 37° C. for 72 hours, respectively. 0.025 mL of MTT solution ([…] of MTT dissolved in 1 mL of 1×PBS) is added into 0.1 mL of the medium, followed by incubating at 37° C. for 4 hours. Succinate dehydrogenase, bound to the inner mitochondrial membrane of the living cells, is capable of reducing MTT to its insoluble formazan, which has a purple color. Therefore, after removing the supernatants, 0.1 mL of DMSO is added to dissolve the insoluble formazan into a colored solution.
# [3] = test system: Hep3B cells; test: MTT cytotoxicity assay; format: cell-based; conditions: 72 hours, 0-10 μM
# Protocol: as §3, §4
# [4] = test system: vector-transfected Hep3B cells (group D1); test: cell viability after lapatinib treatment (FIG. 4b); format: cell-based
# [5] = test system: wild-type HBV genome-transfected HepG2 cells (group F2); test: crystal violet assay (FIG. 6c); conditions: 1 μM, 120 hours
# Description: (§5) The genome of HBV contains 4 known genes including genes C, X, P and S. To define the role of HBx in cytotoxicity of lapatinib to liver cancer, the plasmids being thankful presents from Dr. Seishi Murakami (J. Virology, 79 (9): 5548-5556, 2005) are used to transiently transfect into the Hep3B cells in the trial (F). […] The plasmid containing an ochre termination signal (CAA to UAA) after codon 7 (at codon 8) in the HBx ORF is used as the group F3. The plasmids are transiently transfected into the Hep3B and HepG2 cells as described above.
# (§6) The transfected Hep3B and HepG2 cells are treated with DMSO or 1 μM of lapatinib for 120 hours and the DMSO- or lapatinib-treated cells are analyzed by crystal violet assay.
# [6] = test system: wild-type HBV genome-transfected Hep3B cells (group F2); test: crystal violet assay (FIG. 6c); conditions: 1 μM, 120 hours
# Description: as §5, §6
# [7] = test system: vector-transfected Hep3B cells (group F1); test: crystal violet assay (FIG. 6c); conditions: 1 μM, 120 hours
# Description: as §5, §6
# [8] = test system: HBx-minus mutant-transfected HepG2 cells (group F3); test: crystal violet assay (FIG. 6c); conditions: 1 μM, 120 hours
# Description: as §5, §6
# [9] = test system: vector-transfected HepG2 cells (group F1); test: crystal violet assay (FIG. 6c); conditions: 1 μM, 120 hours
# Description: as §5, §6
# [10] = test system: HBx-minus mutant-transfected Hep3B cells (group F3); test: crystal violet assay (FIG. 6c); conditions: 1 μM, 120 hours
# Description: as §5, §6
# [11] = test system: Hep3Bx cells; test: Western blotting of cleaved PARP and cleaved Caspase-3; format: cell-based; conditions: higher concentration
# Protocol: (§7) Western blotting is performed with anti-PARP antibody (1: 1,000, purchased from Cell Signaling) and anti-Caspase-3 antibody (1: 1,000, purchased from Cell Signaling). The anti-Actin antibody (1: 10,000, purchased from Sigma) is used as an internal control.
# [12] = test system: Hep3B cells; test: as above; format: cell-based
# Protocol: as §7
# [13] = test system: ErbB3-transfected Hep3B cells (group K2); test: cell numbers by light and fluorescence microscopy (FIG. 11b-d); format: cell-based; conditions: 120 hours
# Description: That is, pDSRed vector is used as a control (group K1) and the ErbB3 protein-expressing plasmid constructed with primers with sequences set forth in SEQ ID NOs. 11 and 12 is used as the group K2.
# Cell numbers of the vector- or ErbB3-transfected Hep3B cells are monitored using a fluorescence microscope with an excitation wavelength of 535 nm. […] The cell number of the lapatinib-treated vector-transfected Hep3B cells divides by the cell number of the DMSO-treated vector-transfected Hep3B cells and the cell number of the lapatinib-treated ErbB3-transfected Hep3B cells divides by the cell number of the DMSO-treated ErbB3-transfected Hep3B cells. As a result, after lapatinib treatment for 120 hours, the quantitative cell viability of ErbB3-transfected Hep3B cells is merely smaller than 20%. That is, ErbB3 transfection induces […] of Hep3B cells to lapatinib.
# [14] = test system: myc-HBx-transfected Hep3B cells (group D2); test: cell viability after lapatinib treatment (FIG. 4b); format: cell-based
# Description: (§8) In the trial (D) and (E), HBx is introduced into the Hep3B cells via transient transfection and virus transduction, respectively. Cytotoxicity of lapatinib to the HBx-transfected or HBx-virus transduced Hep3B cells is further monitored by the crystal violet assay.
# That is, pcDNA6/myc-His A vector is used as a control (group D1) and the C-terminal myc-tagged HBx plasmid expressing myc-HBx expression protein constructed with primers with sequences set forth in SEQ ID NOs. 5 and 6 is used as the group D2.
# (§9) The plasmids are transfected into the Hep3B cells as the following procedure: 1 μg of the plasmids are mixed with 1 μL of TransIT2020 transfection reagent, and the mixture is incubated with the fresh medium without FBS at room temperature for 30 minutes to obtain the vector-transfected Hep3B cells (group D1) and the myc-HBx-transfected Hep3B cells (group D2).
# [15] = test system: Hep3Bx cells; test: sub-G1 phase arrest by PI flow cytometry; format: cell-based; conditions: 120 hours, different concentrations
# Protocol: (§10) The Hep3B and Hep3Bx cells are inoculated in 3.5-cm petri dishes, respectively. After the Hep3B and Hep3Bx cells cover 50 to 60% of the 3.5-cm petri dishes, 3 mL of fresh medium with different concentrations of lapatinib is added, followed by incubation at 37° C. for 120 hours. The cultured Hep3B and Hep3Bx cells are resuspended in 3 mL of 75% ethanol in a concentration of 1.5×10^5 cells per mL and fixed at −20° C. for at least 2 hours. Finally, the fixed Hep3B and Hep3Bx cells are mixed with 0.5 mL of PI buffer at 37° C. for 30 minutes. The sub-G1 phase arresting cells with a DNA content less than 2n, which are usually the result of apoptotic DNA fragmentation are detected and measured by a sub-G1 peak in the fluorescence histogram of flow cytometry.
# [16] = test system: Hep3B cells; test: sub-G1 phase arrest by PI flow cytometry; format: cell-based; conditions: 120 hours, different concentrations
# Protocol: as §10
# [17] = test system: vector-virus transduced Hep3B cells (group E1); test: cell viability after lapatinib treatment (FIG. 5b); format: cell-based
# Description: as §8
# (§11) That is, pDEST-V5 vector is used as a control (group E1) and the HBx plasmid expressing HBx expression protein constructed with primers with sequences set forth in SEQ ID NOs. 7 and 8 is used as the group E2.
# (§12) The plasmids are virus transduced into the Hep3B cells as the following procedure: the Hep3B cells are inoculated in 3.5-cm petri dishes with concentration of 2×10^5 cells per petri dish. After incubating for 24 hours, virus with 100 MOI is used to transduce the plasmids into the cultured Hep3B cells. Fresh media are replaced after 16 hours and the following experiments are performed 4 days later.
# [18] = test system: HBx-virus transduced Hep3B cells (group E2); test: cell viability after lapatinib treatment (FIG. 5b); format: cell-based
# Description: as §8, §11, §12
# [19] = test system: myc-HBx-transfected Hep3B cells (group D2); test: crystal violet staining (FIG. 4c); format: cell-based; conditions: 1 μM, 120 hours
# Protocol: as §9
# Moreover, 1×10^5 cells of the vector-transfected Hep3B cells (group D1) and the myc-HBx-transfected Hep3B cells (group D2) are further treated with 1 μM of lapatinib. Also, DMSO is used to treat the vector-transfected Hep3B cells (group D1) and the myc-HBx-transfected Hep3B cells (group D2) as a solvent control. After culturing at 37° C. for 120 hours, the supernatants are removed and 10 mg/mL of crystal violet solution dissolving in 30% ethanol is added to the cultured Hep3B cells for 15 to 30 minutes. Crystal violet solution can stain the nuclei of the living cells adhering to the petri dishes.
# [20] = test system: liver cancers; conditions: clinical trial; cited from earlier work
# [21] = test system: vector-transfected Hep3B cells (group D1); test: crystal violet staining (FIG. 4c); format: cell-based; conditions: 1 μM, 120 hours
# [22] = test system: HBx in Hep3Bx cells; test: siRNA silencing of HBx, Western blotting (FIG. 9e); format: cell-based; conditions: 4-day posttransfection
# Protocol: HBx-specific siRNA with a sequence as set forth in SEQ ID NO: 9 and a control siRNA with a sequence as set forth in SEQ ID NO: 10 are used to further confirm the relationship between HBx and ErbB3 in the Hep3Bx cells.
# as §1
# [23] = test system: ErbB3 in Hep3Bx cells; test: siRNA silencing of ErbB3 (FIG. 12a); format: cell-based
# Protocol: as §1, §2
molecule,measurement,setting,value
CS(=O)(=O)CCNCc1ccc(-c2ccc3ncnc(Nc4ccc(OCc5cccc(F)c5)c(Cl)c4)c3c2)o1 [lapatinib],tolerance to lapatinib (crystal violet staining),[1],intolerance to lapatinib
same,lapatinib concentration at which cells show intolerance,[2],more than 0.1 μM
same,lapatinib concentration at which cells show intolerance,[3],more than 5 μM
same,concentration at which lapatinib shows cytotoxicity,[4],5000 nM
same,cytotoxicity (crystal violet assay),[5],significant cytotoxicity
same,cytotoxicity (crystal violet assay),[6],obvious cytotoxicity
same,cytotoxicity (crystal violet assay),[7],no cytotoxicity
same,cytotoxicity (crystal violet assay),[8],slight cytotoxicity
same,cytotoxicity (crystal violet assay),[9],slight cytotoxicity
same,cytotoxicity (crystal violet assay),[10],no cytotoxicity
same,level of cleaved PARP and cleaved Caspase-3,[11],higher level of cleaved PARP and cleaved Caspase-3
same,level of cleaved PARP and cleaved Caspase-3,[12],does not increase the level of cleaved PARP and cleaved Caspase-3
same,cell numbers (light microscopy),"[13]; ErbB3-transfected Hep3B cells (group K2), in comparison to vector-transfected cells",reduction of cell numbers
same,quantitative cell viability,"[13]; ErbB3-transfected Hep3B cells, lapatinib-treated cell number divided by DMSO-treated cell number, fluorescence microscope",smaller than 20%
same,concentration at which lapatinib shows cytotoxicity,[14],1000 nM
same,sub-G1 phase arrest,[15],"the higher the treating concentration is, the more sub-G1 phase arresting cells are observed"
same,sub-G1 phase arrest,[16],does not trigger sub-G1 phase arrest
same,cytotoxicity,[17],no cytotoxicity
same,cells survival,[18],about 60%
same,cytotoxicity,[18],significant cytotoxicity
same,cytotoxicity (crystal violet staining),[19],significant cytotoxicity
same,effectiveness in patients with liver cancers,[20],effective for only part of patients with liver cancers
same,cytotoxicity (crystal violet staining),[21],slight cytotoxicity
"HBx-specific siRNA: HBx-specific siRNA with a sequence as set forth in SEQ ID NO: 9 (GGTTAAAGGTCTTTGTATT; listed as DNA, chemistry not given here)",protein level of ErbB3,[22],decreased protein level of ErbB3
same,protein level of HBx,[22],decreases protein level of HBx
"ErbB3-specific siRNA: ErbB3-specific siRNA with a sequence as set forth in SEQ ID NO: 13 (GCGATGCTGAGAACCAATA; listed as DNA, chemistry not given here)",mRNA level of ErbB3,[23],decreases mRNA level of ErbB3
same,protein level of ErbB3,[23],decreased protein level of ErbB3
